Columns and labels:
[1] = tested on: Spontaneously Hypertensive rat; experiment: antihypertensive activity, Spontaneously Hypertensive Rat (Table II); assay type: in vivo; details: for antihypertensive effect (in words): conclusion from Table II (SHR, and DOCA for Examples I-IV)
Method in brief: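 Conditioned male SHR (300-400 g), prewarmed at 30° C and restrained; systolic blood pressure and heart rate by tail-cuff before and 2, 4 and 24 h after oral dosing in 0.25% Methocel (5 ml/kg). Values are changes from zero-hour readings; peak ΔBP above 20 mm Hg taken as activity.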

[2] = tested on: α blocking activity (norepinephrine); experiment: in vivo α blocking activity, norepinephrine (NE) as α-agonist (Table III); set-up: species or system rat; details: ED50 after/before drug
Description: In this example the compounds of Examples I (modified), II, III, V, VI, VII, VIII, IX and XI were tested in rats for in vivo α blocking activity according to methodology described at page 312 of Deitchman, et al., Journal of Pharmacological Methods, 3, 311-321 (1980). In this test phenylephrine (PE below) or norepinephrine (NE below) was administered as an α-agonist to the rats before and after dosing with the test drug and the average interpolated dose or PE/NE effecting a 50 mm Hg increase in mean arterial blood pressure was determined. Table III below records the results. In such Table, ED50 stands for such average interpolated dose and Average Dose Shift stands for the average ratio of ED50 after drug administration to ED50 before drug administration. The compound of Example I was tested as its monochloride 2-propanolate hydrate, i.e. as C22 H27 ClN4 O4 S.HCl 0.2(CH3)2 CHOH.0.15H2 O in Tests 1-5 and as the 3/4 mole hydrochloride, i.e. C22 H27 ClN 4 O4 S.3/4HCL in Tests 2a and 3a. The route was intravenous except in the case of the runs of Test Nos. 2a, 3, 3a, 26-29 the route was oral.

[3] = SHR, 3.0 mg/kg oral, as 3/4 mole hydrochloride
[4] = SHR, 30 mg/kg oral, as 3/4 mole hydrochloride
[5] = SHR, 3.0 to 30 mg/kg body weight

With `COc1ccccc1N1CCN(CCCN2Cc3cc(Cl)c(S(N)(=O)=O)cc3C2=O)CC1` [Example I, 6-chloro-2,3-dihydro-2-[3-[4-(2-methoxyphenyl)-1-piperazinyl]propyl]-3-oxo-1H-isoindole-5-sulfonamide] the “ΔBP 4 hours” value ([1]; SHR, 0.3 mg/kg oral) was -18 ± 6 mm Hg, the “ΔHR 4 hours” value ([1]; SHR, 0.3 mg/kg oral) was 11 ± 3 beats per minute and the “ΔBP 4 hours” value ([1]; SHR, 3.0 mg/kg oral) was -43 ± 7 mm Hg. For the same compound, the “ΔHR 4 hours” value ([1]; SHR, 3.0 mg/kg oral) was 10 ± 15 beats per minute, the “ΔBP 2 hours” value [1, 3] was -23 ± 8 mm Hg and the “ΔBP 4 hours” value [1, 3] was -10 ± 5 mm Hg. For the same compound, the “ΔHR 2 hours” value [1, 3] was 8 ± 10 beats per minute, the “ΔHR 4 hours” value [1, 3] was 14 ± 18 beats per minute and the “ΔBP 2 hours” value ([1]; SHR, 30 mg/kg oral) was -84 ± 10 mm Hg. The “ΔHR 2 hours” value ([1]; SHR, 30 mg/kg oral) was 16 ± 15 beats per minute, the “ΔBP 2 hours” value [1, 4] was -97 ± 10 mm Hg and the “ΔBP 4 hours” value [1, 4] was -52 ± 13 mm Hg. For the same compound, the “ΔHR 2 hours” value [1, 4] was 16 ± 8 beats per minute, the “ΔHR 4 hours” value [1, 4] was 2 ± 9 beats per minute and the “systolic blood pressure / antihypertensive activity (in words)” value [1, 5] was “dose-dependent decrease in systolic blood pressure”. For the same compound, the “time at which antihypertensive effect seen” value [1, 5] was “about two”, the “antihypertensive effect (in words)” value [1] was “good antihypertensive effect without significantly affecting heart rate” and the “Average Dose Shift” value ([2]; dose 0.3, intravenous) was 3 ± 0.3. The “Average Dose Shift” value ([2]; dose 1.0, intravenous) was 11 ± 1.
For `COc1ccccc1N1CCN(CCN2Cc3cc(Cl)c(S(N)(=O)=O)cc3C2=O)CC1` [Example III, 6-Chloro-2,3-dihydro-2-[2-[4-(2-methoxyphenyl)-1-piperazinyl]ethyl]-3-oxo-1H-isoindole-5-sulfonamide], the “ΔBP 2 hours” value ([1]; SHR, 30 mg/kg oral) was -47 ± 14 mm Hg, the “ΔBP 4 hours” value ([1]; SHR, 30 mg/kg oral) was -69 ± 20 mm Hg and the “ΔHR 2 hours” value ([1]; SHR, 30 mg/kg oral) was 10 ± 3 beats per minute. For the same compound, the “ΔHR 4 hours” value ([1]; SHR, 30 mg/kg oral) was 10 ± 10 beats per minute and the “antihypertensive effect (in words)” value [1] was “good antihypertensive effect without significantly affecting heart rate”.
